Measurements from patent US20170119742A1, “MEDICAMENT FOR PREVENTING AND/OR TREATING STRESS DISEASES” (ONO PHARMACEUTICAL CO., LTD., priority 2014, published 2017).

What was measured:
[1] = tested on: brain TSPO; test: Brain occupancy using PET in monkeys, [11C] PBR28; type: in vivo; conditions: rhesus monkey PET, [11C] PBR28, oral
Description: Male rhesus monkeys (Hamri Co., Ltd., at the time of use: 5 to 8 kg) were used. The vehicle (0.5 w/v % methylcellulose 400 cP solution) or the compound of the present invention (0.3 to 30 mg/kg) was once orally administered to 3 rhesus monkeys. After 2 hours of the administration, a PET measurement using [^11C] PBR28 was performed in the following manner.
Measurement equipment: PET camera; SHR-7700 (Hamamatsu Photonics K.K.) Image reconstruction: SHR Control II program (Hamamatsu Photonics K.K.) Change over time in brain radioactivity concentration and calculation of distribution volume: PMOD programs (PMOD Technologies Ltd.) Measurement methods: 120 minutes blank measurement and 30 minutes transmission measurement were performed using 68Ge/68Ga calibration source. Next, [^11C] […]
The compound of the present invention (0.3 to 10 mg/kg) was orally administered twice daily for 3 days, once on day 4 to 3 rhesus monkeys. […] Brain TSPO occupancy relative to the distribution volume of the vehicle control group was calculated by calculating the distribution volume of the interest area (cerebellum, hippocampus, striatum, thalamus, occipital lobe, temporal lobe, frontal lobe and parietal lobe) from the brain radioactivity concentration time change of [^11C] PBR28 and arterial blood plasma radioactivity which was corrected in a non-metabolic rate.

[2] = target: T1, brain TSPO (Homo sapiens, UniProt P30536); test: Prediction of brain TSPO occupancy in steady state, once daily in humans (Biological example 9); conditions: trough concentration
T1 construct: from tissue; host or cells: living human brain (PET, healthy adults)
Text: A transition in the plasma concentration of the compound of the present invention, in a steady state when administered once daily, was predicted.

[3] = tested on: female diarrhea-type IBS patients; test: Efficacy trial in humans 1: double-blind parallel-group study in IBS; type: in vivo, human; conditions: for Daily responder (%), Abdominal Pain and Stool Consistency: placebo 6.5; for Daily responder (%), Stool Consistency: placebo 10.9; for Weekly responder (%), Abdominal Pain and Stool Consistency: placebo 21.7; for Weekly responder (%), Stool Consistency: placebo 28.3; for Daily responder (%), Abdominal Pain: placebo 37; for Weekly responder (%), Abdominal Pain: placebo 39.1; for increase in the number of days per week with no abdominal pain: 4th week of treatment period, placebo 0.61
Description: As a clinical trail, a double-bind, parallel-group study was conducted under the following conditions in female diarrhea-type IBS patients.
PURPOSE: Confirmation of efficacy against clinical symptoms of IBS METHODS: This study was conducted at 49 centers in the United States and recruited 200 patients (aged 18-65 years) with female diarrhea-type IBS patients according to Rome III criteria (Gastroenterology, Vol. 130, p. 1480-1491, 2006). Patients were randomly assigned to any of the following three treatment groups (1:1:1 ratio) and received orally administration once-daily for 4 weeks. Patients recorded their IBS symptoms on a daily basis in an e-diary during a 2-week pre-treatment, the 4-week treatment period and for 4 weeks post-treatment. Safety monitoring was performed throughout the study. The primary endpoints were change from baseline (pre-treatment period) to week 4 in stool consistency (Bristol Stool Scale; BSS), stool frequency and abdominal pain (Numerical Rating Scale; NRS). Secondary endpoints included FDA responder analyses (Guidance for Industry Irritable Bowel Syndrome—Clinical Evaluation of Drugs for Treatment).
(1) Placebo group (2) The compound of the present invention (20 mg treatment) group (3) The compound of the present invention (60 mg treatment) group ENDPOINTS: IBS symptoms (abdominal pain, stool consistency, stool frequency, faecal urgency and severity), QOL, psychological symptoms, safety, pharmacokinetics and biomarker RESULTS: Baseline value of patient layer and each of the parameters (stool consistency, stool frequency and abdominal pain) were similar in each treatment group. […] Further, a greater percentage of patients met responder criteria among patients in 60 mg treatment group of the compound of the present invention compared to placebo treatment group (Table 3, FIG. 10 and FIG. 11). On the other hand, the increase in the number of days per week with no abdominal pain at the 4th week of treatment period were 0.61 in placebo treatment group, 1.16 in 20 mg treatment group and 1.51 in 60 mg treatment group.
The weekly responder of abdominal pain and stool consistency was defined as a patient who met the both criteria of the above-mentioned abdominal pain score and stool consistency.

[4] = 20 mg oral once daily 4 weeks, n = 41
[5] = 60 mg oral once daily 4 weeks, n = 45

T1 sequence (P30536 whole entry): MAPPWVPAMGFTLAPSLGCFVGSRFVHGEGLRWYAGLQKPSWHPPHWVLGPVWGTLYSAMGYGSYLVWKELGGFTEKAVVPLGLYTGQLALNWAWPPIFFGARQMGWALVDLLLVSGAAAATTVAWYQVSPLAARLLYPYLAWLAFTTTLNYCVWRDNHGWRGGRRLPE

## COc1cc(Cl)ccc1[C@H]1c2[nH]c3cccc(F)c3c2C2(CC2)CN1C(C)=O [the compound of the present invention, (1S)-2-acetyl-1-(4-chloro-2-methoxyphenyl)-5-fluoro-1,2,3,9-tetrahydrospiro[β-carboline-4,1′-cyclopropane]]
[1]
  plasma concentration at which brain TSPO occupancy reaches about 50%: about 70 ng/mL
[2]; dose 5 mg
  TSPO Occupancy (%) Predicted 5 percentile: 42.8%
  TSPO Occupancy (%) Predicted 95 percentile: 70.3%
  TSPO Occupancy (%) Predicted median: 57.4%
[2]; dose 10 mg
  TSPO Occupancy (%) Predicted 5 percentile: 59.8%
  TSPO Occupancy (%) Predicted 95 percentile: 82.3%
  TSPO Occupancy (%) Predicted median: 73.1%
[2]; dose 20 mg
  TSPO Occupancy (%) Predicted 5 percentile: 74.6%
  TSPO Occupancy (%) Predicted 95 percentile: 90.5%
  TSPO Occupancy (%) Predicted median: 84.4%
[2]; dose 30 mg
  TSPO Occupancy (%) Predicted 5 percentile: 81.6%
  TSPO Occupancy (%) Predicted 95 percentile: 93.4%
  TSPO Occupancy (%) Predicted median: 89.0%
[2]; dose 60 mg
  TSPO Occupancy (%) Predicted 5 percentile: 90.0%
  TSPO Occupancy (%) Predicted 95 percentile: 96.7%
  TSPO Occupancy (%) Predicted median: 94.2%
[2]; dose 100 mg
  TSPO Occupancy (%) Predicted 5 percentile: 95.3%
  TSPO Occupancy (%) Predicted 95 percentile: 98.4%
  TSPO Occupancy (%) Predicted median: 97.4%
[3]; 20 mg or 60 mg oral once daily for 4 weeks
  tolerability and safety profile: well-tolerated and had a favourable safety profile
[3]; [4]
  Daily responder (%), Abdominal Pain and Stool Consistency: 14.6%
  Daily responder (%), Stool Consistency: 17.1%
  Weekly responder (%), Abdominal Pain and Stool Consistency: 22%
  Weekly responder (%), Stool Consistency: 41.5%
  Daily responder (%), Abdominal Pain: 36.6%
  Weekly responder (%), Abdominal Pain: 39%
[3]; [5]
  Daily responder (%), Abdominal Pain and Stool Consistency: 20%
  Daily responder (%), Stool Consistency: 26.7%
  Weekly responder (%), Abdominal Pain and Stool Consistency: 37.8%
  Weekly responder (%), Stool Consistency: 48.9%
  Daily responder (%), Abdominal Pain: 53.3%
  Weekly responder (%), Abdominal Pain: 57.8%
[3]; 60 mg treatment group, over the 4-week treatment period (FIG. 8)
  number of days per week with at least one stool having a BSS classification of 6 or 7, vs placebo: Improvements over placebo treatment group
[3]; 60 mg treatment group, over the 4-week treatment period (FIG. 9)
  average weekly score of the worst abdominal pain experienced during the past 24 hours, vs placebo: Improvements over placebo treatment group
[3]; 20 mg treatment group
  increase in the number of days per week with no abdominal pain: 1.16
[3]; 60 mg treatment group
  increase in the number of days per week with no abdominal pain: 1.51
